Literature values as cited in US20070142395A1, “Treatment of sexual dysfunction with 1-[3-[4-(3-chlorophenyl)-1-piperazinyl]propyl]-5-methoxy-3,4-dihydro-2(1H)-quinolone or salt thereof” (Vela Pharmaceuticals, Inc., priority 2005, published 2007).

details: SSRI/SNRI antidepressant therapy; Montejo et al. 2001; cited from earlier work

Row | Structure (SMILES) | incidence of sexual dysfunction as side effect [%]
1 | CN(C)CCCC1(c2ccc(F)cc2)OCc2cc(C#N)ccc21 (centres unmarked) [citalopram] | 72.7
2 | CNCCC(Oc1ccc(C(F)(F)F)cc1)c1ccccc1 (centres unmarked) [fluoxetine] | 57.7
3 | Fc1ccc([C@@H]2CCNC[C@H]2COc2ccc3c(c2)OCO3)cc1 [paroxetine] | 70.7
4 | CN[C@H]1CC[C@@H](c2ccc(Cl)c(Cl)c2)c2ccccc21 [sertraline] | 62.9
5 | COc1ccc(C(CN(C)C)C2(O)CCCCC2)cc1 (centres unmarked) [venlafaxine] | 67.3
